According to patent publication US20070054258A1, “Method of removing mucus and cell treatment solution and preservative solution used therefor” (SYSMEX CORPORATION, priority 2003, published 2007):

Columns and labels:
Type in all cases: cell-based
[1] = tested on: cell populations in a clinical specimen derived from uterine cervix; assay: Effect of removing mucus in clinical specimens of uterine cervix for cytodiagnosis (Giemsa stain, light microscope)
Experimental: Cell populations in a clinical specimen derived from uterine cervix which had been stored in 30 to 60 mass % methanol-based, buffered preservative solution (PreservCyt® manufactured by Cytyc Corporation) was transferred to a 1.5 ml centrifuge tube (about 1×10^5 cells/sample).
The solution was centrifuged (10000 rpm; 1 minute; 4° C.) to separate cells, and the supernatant was removed.
To the cells thus collected was added 1 ml of a mixture (hereinafter referred to as PBS-T) of 0.1% Tween 20 (Sigma) and 0.01M phosphate buffer (PBS available from Sigma; pH7.4) and the cells were resuspended.
The cells were washed by another centrifugation (10000 rpm, 1 minute, 4° C.) for cell separation, removal of the supernatant and cell collection. The cells washed were resuspended in 500 μl of the preservative solution.
10 mass % aqueous solution of N-acetyl-L-cysteine (hereinafter referred to as AcCys) was prepared for a cell treatment solution. This cell treatment solution was added to the cell suspension obtained from the above, and samples of B to E were prepared so that the AcCys concentrations in the samples were 0.625 mass %, 1.25 mass % or 5 mass %.
The solution obtained after the reaction was finished was then centrifuged (10000 rpm; 1 minute; 4° C.) to separate cells, and the supernatant was removed and cells were collected.
The cells were washed by resuspension in 1 ml of PBS-T, another centrifugation (10000 rpm; 1 minute, 4° C.) for cell separation, and removal of the supernatant. This washing procedure was repeated two times.
The cells collected were suspended in 300 μl of 100% methanol and mounted on a glass slide by using Cytospin. Then, cells on the slide were stained with 5% Giemsa Stain Solution (Sysmex) for 15 minutes, washed thoroughly with PBS, and observed under a light microscope to give micrographs of FIG. 1 to 5 for each sample of A to E. […]

[2] = tested on: squamous cells; assay: Staining with fluorescent-labeled anti-NMP 179 antibody after treatment; settings: cells treated with 5 mass % AcCys (FIG. 8)
Experimental: Squamous cells which were not treated with AcCys and squamous cells which were treated with 5 mass % AcCys were stained with a fluorescent-labeled anti-NMP 179 antibody which reacts with cells derived from uterine cervix except for normal uterine cervix squamous cells, and observed under a microscope to give each result of fluorescent image in FIG. 7 and FIG. 8.

[3] = tested on: cell populations of clinical specimen; assay: Effect of the cell treatment solution on cell morphology; settings: 5 minutes compared with 1 minute
Experimental: The cell treatment solutions containing L-cysteine at concentrations of 5 mass %, 10 mass % and 20 mass % were used to treat cell populations of clinical specimen for 1 minute or 5 minutes in the same manner of the above, and the cells were observed. The results of each sample treated with the solutions containing 5 mass %, 10 mass % and 20 mass % L-cysteine for 1 minute and 5 minutes were shown in FIG. 9 to FIG. 14.

SMILES | mucus part (black clumps) after treatment ([1]; AcCys 5 mass % (Sample E), room temperature, 1 minute) | mucus part (black clumps) after treatment ([1]; AcCys 5 mass % (Sample F), reaction time 24 hours) | mucus part (black clumps) after treatment ([1]; AcCys under 5 mass % (Samples B to D), room temperature, 1 minute) | specificity of fluorescent anti-NMP179 antibody staining [2] | effect on cell morphology ([3]; 5 mass % L-cysteine) | effect on cell morphology ([3]; 10 mass % L-cysteine) | effect on cell morphology ([3]; 20 mass % L-cysteine)
CC(=O)N[C@@H](CS)C(=O)O [AcCys, N-acetyl-L-cysteine] | black clumps showing mucus part were disappeared | black clumps showing mucus part were disappeared | there remained black clumps which showed mucus part | specific staining |  |  | 
N[C@@H](CS)C(=O)O [L-cysteine] |  |  |  |  | did not affect the cell morphology | did not affect the cell morphology | did not affect the cell morphology
